In experiment [1] the test system is nuclear YAP in brain neurons of 5×FAD mice. In words: Amounts of nuclear YAP in brain neurons by immunohistochemical staining. In kind it is in vivo, mouse. The note with it: 5×FAD mice given at 1 month of age, measured at 6 months of age, vs 5×FAD mice without administration (FIG. 10). The procedure:
(§1) Brain tissues were excised from the test subjects or the AD mouse models and fixed in a 4% PFA (paraformaldehyde) solution. Then, 5 µm thick paraffin sections were prepared using a microtome (manufactured by Yamato Kohki Industrial Co., Ltd.). […] Fluorescence signals derived from each primary antibody were detected using a fluorescence microscope (IX70, manufactured by Olympus Corp.) or a confocal laser scanning microscope (FV1200, manufactured by Olympus Corp.) to obtain images (specifically, YAP images, phosphorylated LATS1 serine 909 (Ser909) [pLATS1] images, images of the detected DAPI fluorescence signals derived from the cells nuclei (DAPI images), and overlaid images thereof (merged images). In the DAPI images, cells having the deformed and/or shrunk cell nuclei were evaluated as necrotic cells, and the numbers of necrotic cells in 30 fields of view (143 μm×143 μm) were measured to calculate a necrotic cell number per field of view (see the ordinates of FIGS. 5A to 5C). […]

Experiment [2] concerns extracellular amyloid β in brain tissues of 5×FAD mice. In words: Extracellular amyloid β levels of brain tissues by immunohistochemical staining. In kind it is in vivo, mouse. The following applies: 5×FAD mice given at 1 month of age, measured at 6 months of age, vs 5×FAD mice without administration (FIG. 11). The procedure:
as §1

Experiment [3] relates to ER in brain neurons of 5×FAD mice. In words: In vivo imaging of ER volumes in brain neurons (ER-Tracker Red). More on the design: species or system mouse. The note with it: 5×FAD mice given at 1 month of age, measured at 6 months of age (FIGS. 13 and 15). How it is done:
The skull bones on RSD surface of normal mice (non-transgenic B6/SJL mice) or 5×FAD mice were removed using a high-speed microdrill. 1 μL of a liquid containing 100 nM amyloid-binding substance BTA1 (2-(4′-(methylamino)phenyl) benzothiazole, manufactured by Sigma-Aldrich Co. LLC) and 100 nM ER-Tracker Red (E34250, manufactured by Thermo
Fisher Scientific Inc.) was injected to RSD in the presence of 1% isoflurane (anesthetic). 4 hours later, ER-Tracker Red was imaged using an upright microscope (BX61WI, manufactured by Olympus Corp.) and a scanning laser microscope system FV1000MPE2 (manufactured by Olympus Corp.) equipped with an immersion objective lens (XLPlanN25xW, numerical aperture: 1.05) and a pulse laser (MaiTaiHP DeepSee, manufactured by Spectra-Physics, Inc.) to obtain images of detected BTA1 fluorescence signals (BTA1 images) and images of detected ER-Tracker Red fluorescence signals (ER-Tracker images). The fluorescence signal volumes of ER-Tracker Red (i.e., volumes of ER) were measured. […]

In experiment [4] the test system is pSer46-MARCKS in brain neurons of 5×FAD mice. In words: pSer46-MARCKS levels of brain neurons by immunohistochemical staining. The class given is in vivo, mouse. The note with it: 5×FAD mice given at 1 month of age, measured at 6 months of age, vs 5×FAD mice without administration (FIG. 16).
The subject of experiment [5] is 5×FAD mice. Kind of experiment: Cognitive function analysis, Y-shaped maze score of alternation behavior. In kind it is in vivo, mouse. The note with it: tested at 6 months of age. How it is done:
The administration of AAV-YAPΔC-ins61 or AAV-NINS (titer: 1×10^10 vector genomes/mL each, 1 μL) to mouse RSD (retrosplenial cortex) (depth of −2.0 mm from the bregma and 0.6 mm mediolaterally) and the subarachnoidal administration of S1P (40 nM, 0.15 μL/hr; manufactured by Sigma-Aldrich Co. LLC) or control artificial cerebrospinal fluid (aCSF) (0.15 μL/hr; manufactured by Alzet Osmotic Pressures) to the mice were performed according to the method described in the document “Yang, G. et al., Nat Protoc 5, 201-208 (2010)”. The administration of AAV-YAPΔC-ins61 or AAV-NINS to the mice was performed at 1 or 5 months of age. The administration of S1P to the mice was continuously performed for a period from 1 to 6 months of age or for a period from 5 to 6 months of age.
The normal mice (non-transgenic B6/SJL mice) or the 5×FAD mice given AAV-YAPΔC-ins61 or AAV-NINS, or S1P were tested for their exploratory behavior when aged 6 months using a Y-shaped maze (manufactured by O'HARA & Co., Ltd.) in which three arms of the same size were joined at […]
A value obtained by dividing the number of movements from the immediately preceding arm where the mouse stayed to an arm different from the immediately preceding arm where the mouse stayed by the number of movements in the arms was calculated as the rate of spontaneous alternation (score of alternation behavior; see FIG. 14).

Consider `CCCCCCCCCCCCC/C=C/[C@@H](O)[C@@H](N)COP(=O)(O)O` [SiP, sphingosine 1-phosphate], for which, in experiment [1], the “amounts of nuclear YAP in brain neurons” value is “increased and/or restored to the levels of normal mice”. In experiment [2], the “extracellular amyloid β levels of brain tissues” value is recorded as “lower”. For the same compound, in experiment [3], the “ER dilation and instability in brain neurons” value was “significantly resolved ER dilation and instability”. Besides, the “pSer46-MARCKS levels of brain neurons” value in experiment [4] is “decreased to the levels of normal mice”. Moreover, the “cognitive functions (score of alternation behavior, Y-shaped maze)” value in experiment [5] (5×FAD mice given at 1 month of age, vs 5×FAD mice without administration (FIGS. 17A and 17B)) was “equivalent to the ones of normal mice”; in experiment [5] (5×FAD mice given at 5 months of age, vs 5×FAD mice without administration (FIGS. 17C and 17D)), “equivalent to the ones of normal mice”.

The values above are taken from patent publication US20220296620A1, “AGENT FOR PREVENTING OR TREATING MILD COGNITIVE IMPAIRMENT” (NATIONAL UNIVERSITY CORPORATION TOKYO MEDICAL AND DENTAL …, priority 2019, published 2022).
